Reference: ChEMBL document CHEMBL3885861, “Open TG-GATES”

Species: Rattus norvegicus
Assay: Open TG-GATES - Regimen: Daily Repeat
Type: toxicity, organism-based, Sprague-Dawley
Set-up: regimen Daily Repeat, gender Male, age 6 weeks
Conditions: in vivo, sc, 0.2 mg/kg, route subcutaneous injection, dose 200 ug/Kg, dose level High; for APTT / Bas / Eos / Fbg / Hb / Ht / Lym / MCH / MCHC / MCV / Mono / Neu / PT / Plat / RBC / Ret / WBC: tissue Blood; for KIDNEY_L / KIDNEY_R / KIDNEY_TOTAL: tissue Kidney; for LIVER: tissue Liver; for A/G / ALP / ALT / AST / BUN / CRE / Ca / Cl / DBIL / GLC / IP / K / LDH / Na / PL / RALB / TBIL / TC / TG / TP / gamma-GTP: tissue Plasma

## CC(=O)O.N=C(N)NCCC[C@@H](NC(=O)[C@@H]1CCCN1C(=O)[C@@H]1CSSCCC(=O)N[C@@H](Cc2ccc(O)cc2)C(=O)N[C@@H](Cc2ccccc2)C(=O)N[C@@H](CCC(N)=O)C(=O)N[C@@H](CC(N)=O)C(=O)N1)C(=O)NCC(N)=O [DESMOPRESSIN ACETATE]
72 h, time 3 day
  TERMINAL_BW: 235.3 g
  APTT: 17.2 s
  Bas: 0%
  Eos: 1%
  Fbg: 258 mg/dL
  Hb: 13.4 g/dL
  Ht: 40.8%
  Lym: 67.8%
  MCH: 21.1 pg
  MCHC: 32.8%
  MCV: 64.3 fL
  Mono: 11.8%
  Neu: 18.8%
  PT: 12.2 s
  Plat: 126.8 x10_4/uL
  RBC: 635.6 x10_4/ul
  Ret: 6.8%
  WBC: 73.8 x10_2/uL
  KIDNEY_L: 1.1 g
  KIDNEY_R: 1.1 g
  KIDNEY_TOTAL: 2.2 g
  LIVER: 10 g
  A/G: 2
  ALP: 1277.4 IU/L
  ALT: 32 IU/L
  AST: 69.2 IU/L
  BUN: 20 mg/dL
  CRE: 0.4 mg/dL
  Ca: 11.3 mg/dL
  Cl: 102.8 meq/L
  DBIL: 0.012 mg/dL
  GLC: 196.4 mg/dL
  IP: 7.6 mg/dL
  K: 5.5 meq/L
  LDH: 179.6 IU/L
  Na: 136 meq/L
  PL: 138.6 mg/dL
  RALB: 3.7 g/dL
  TBIL: 0.042 mg/dL
  TC: 75.6 mg/dL
  TG: 85.2 mg/dL
  TP: 5.6 g/dL
  gamma-GTP: 1 IU/L
[…], time 7 day
  TERMINAL_BW: 258.6 g
  APTT: 18.6 s
  Bas: 0%
  Eos: 1%
  Fbg: 251.8 mg/dL
  Hb: 13.6 g/dL
  Ht: 41.4%
  Lym: 75%
  MCH: 20.7 pg
  MCHC: 32.9%
  MCV: 63.1 fL
  Mono: 8.2%
  Neu: 16.2%
  PT: 13.4 s
  Plat: 122 x10_4/uL
  RBC: 656.4 x10_4/ul
  Ret: 7.3%
  WBC: 112.4 x10_2/uL
  KIDNEY_L: 1.3 g
  KIDNEY_R: 1.3 g
  KIDNEY_TOTAL: 2.6 g
  LIVER: 11.3 g
  A/G: 2
  ALP: 1056 IU/L
  ALT: 30.2 IU/L
  AST: 67.6 IU/L
  BUN: 21.2 mg/dL
  CRE: 0.4 mg/dL
  Ca: 13.2 mg/dL
  Cl: 98.8 meq/L
  DBIL: 0.014 mg/dL
  GLC: 200.8 mg/dL
  IP: 7.4 mg/dL
  K: 4.8 meq/L
  LDH: 169.6 IU/L
  Na: 129.8 meq/L
  PL: 130 mg/dL
  RALB: 3.6 g/dL
  TBIL: 0.042 mg/dL
  TC: 71.4 mg/dL
  TG: 90.2 mg/dL
  TP: 5.5 g/dL
  gamma-GTP: 1 IU/L
[…], time 14 day
  TERMINAL_BW: 323.7 g
  APTT: 17 s
  Bas: 0%
  Eos: 1.2%
  Fbg: 244.8 mg/dL
  Hb: 13.8 g/dL
  Ht: 42.7%
  Lym: 73.2%
  MCH: 20.5 pg
  MCHC: 32.4%
  MCV: 63.2 fL
  Mono: 8.2%
  Neu: 17.4%
  PT: 11.9 s
  Plat: 110.6 x10_4/uL
  RBC: 675.8 x10_4/ul
  Ret: 6.1%
  WBC: 104.8 x10_2/uL
  KIDNEY_L: 1.5 g
  KIDNEY_R: 1.5 g
  KIDNEY_TOTAL: 3 g
  LIVER: 13.6 g
  A/G: 1.9
  ALP: 1196.4 IU/L
  ALT: 31.8 IU/L
  AST: 69.2 IU/L
  BUN: 20.8 mg/dL
  CRE: 0.4 mg/dL
  Ca: 10.7 mg/dL
  Cl: 105.6 meq/L
  DBIL: 0.014 mg/dL
  GLC: 207 mg/dL
  IP: 7.5 mg/dL
  K: 5 meq/L
  LDH: 125.6 IU/L
  Na: 138.6 meq/L
  PL: 150.8 mg/dL
  RALB: 3.7 g/dL
  TBIL: 0.038 mg/dL
  TC: 75.6 mg/dL
  TG: 119.8 mg/dL
  TP: 5.7 g/dL
  gamma-GTP: 1 IU/L
[…], time 28 day
  TERMINAL_BW: 400.9 g
  APTT: 18.9 s
  Bas: 0%
  Eos: 1%
  Fbg: 260.8 mg/dL
  Hb: 15 g/dL
  Ht: 45.6%
  Lym: 80.4%
  MCH: 18.8 pg
  MCHC: 32.8%
  MCV: 57.4 fL
  Mono: 6.4%
  Neu: 11.8%
  PT: 12.2 s
  Plat: 112.2 x10_4/uL
  RBC: 795.2 x10_4/ul
  Ret: 3.1%
  WBC: 95 x10_2/uL
  KIDNEY_L: 1.8 g
  KIDNEY_R: 1.8 g
  KIDNEY_TOTAL: 3.6 g
  LIVER: 14.7 g
  A/G: 1.6
  ALP: 872.6 IU/L
  ALT: 28 IU/L
  AST: 62.8 IU/L
  BUN: 22 mg/dL
  CRE: 0.4 mg/dL
  Ca: 9.2 mg/dL
  Cl: 105.6 meq/L
  DBIL: 0.01 mg/dL
  GLC: 182.8 mg/dL
  IP: 6.5 mg/dL
  K: 4.8 meq/L
  LDH: 160 IU/L
  Na: 138.4 meq/L
  PL: 153.2 mg/dL
  RALB: 3.8 g/dL
  TBIL: 0.046 mg/dL
  TC: 88.4 mg/dL
  TG: 117.6 mg/dL
  TP: 6.1 g/dL
  gamma-GTP: 0.6 IU/L
